Ends that are not written are not given here. Peptide text beside a SMILES is read from it.
Assays:
PQQGDH [1] = target: T1, PQQGDH (Acinetobacter calcoaceticus, UniProt P13650); assay: PQQGDH activity for glucose in the presence of synthetic peptides (PMS/DCIP assay); assay type: biochemical; settings: derived from the Dixon plot; 0.57 nM apo-PQQGDH, glucose substrate, pH 7.0; read-out: Ki (inhibition constant)
Protocol: The three peptides with the lowest docking energies, GEKD, GERD, and SERG, and the control peptide DDDD were synthesized by Qiagen (Chatsworth, CA, USA). […] In general, purified PQQGDH is a mixture of an apo- and holo-type enzyme. Therefore, we dialyzed the enzyme against 100 mM EDTA and 10 mM MOPS-NaOH buffer for 2 days, to remove the Ca^2+ ions. Each synthesized peptide was prepared at concentrations of 0.2, 1, 2, 10, and 20 μM. The prepared peptides and 0.57 nM of apo-PQQGDH were incubated in 10 mM MOPS-NaOH buffer (pH 7.0) for 10 min at room temperature. PQQGDH activity was measured using 0.6 mM PMS and 0.06 mM DCIP. Decreased in the absorbance of DCIP at 600 nm at various concentrations of glucose were monitored, and the kinetic parameters of PQQGDH were as described previously. The kinetic parameters and Ki values were calculated using the KaleidaGraph software.

PQQGDH [2] = target: T1, PQQGDH; design: method as in PMID 12882541; settings: peptide from phage display peptide library; cited from earlier work

T1 sequence (P13650 25-478): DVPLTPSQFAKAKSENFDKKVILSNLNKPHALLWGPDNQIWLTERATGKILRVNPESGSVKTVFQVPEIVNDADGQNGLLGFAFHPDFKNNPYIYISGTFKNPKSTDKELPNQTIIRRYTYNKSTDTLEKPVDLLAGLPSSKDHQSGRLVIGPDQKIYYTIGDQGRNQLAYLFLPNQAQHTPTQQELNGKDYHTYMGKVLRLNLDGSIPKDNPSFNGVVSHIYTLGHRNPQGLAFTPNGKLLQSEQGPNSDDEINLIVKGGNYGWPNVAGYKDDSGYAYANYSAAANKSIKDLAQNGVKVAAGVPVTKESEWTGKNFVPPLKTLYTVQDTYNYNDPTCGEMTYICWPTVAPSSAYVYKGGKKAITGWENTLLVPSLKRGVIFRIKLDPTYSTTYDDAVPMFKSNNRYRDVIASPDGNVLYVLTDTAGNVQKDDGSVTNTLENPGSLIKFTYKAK

Molecule | Ki (PQQGDH [1]) [µM] | Effect on substrate specificity of PQQGDH (PQQGDH [2])
N[C@@H](CC(=O)O)C(=O)N[C@@H](CC(=O)O)C(=O)N[C@@H](CC(=O)O)C(=O)N[C@@H](CC(=O)O)C(=O)O [DDDD] (H-DDDD-OH) | > 100 | 
NCCCC[C@H](NC(=O)[C@H](CCC(=O)O)NC(=O)CN)C(=O)N[C@@H](CC(=O)O)C(=O)O [GEKD] (H-GEKD-OH) | > 20 | 
N=C(N)NCCC[C@H](NC(=O)[C@H](CCC(=O)O)NC(=O)CN)C(=O)N[C@@H](CC(=O)O)C(=O)O [GERD] (H-GERD-OH) | > 20 | 
N=C(N)NCCC[C@H](NC(=O)[C@H](CCC(=O)O)NC(=O)[C@@H](N)CO)C(=O)NCC(=O)O [SERG] (H-SERG-OH) | 20 | 
TTATEYS [seven-amino-acid peptide previously identified from a phage display peptide library] |  | narrowed the substrate specificity of PQQGDH without significant loss of enzyme activity
